The values below come from the supplement of paper PMC10307832.

Test in all cases: relative viability (nuclei count vs DMSO), 5 days (fraction); higher = more cells survive
Compound in the assay “IU1-47 + Luminespib”: CC1=CC(=C(N1C2=CC=C(C=C2)Cl)C)C(=O)CN3CCCCC3 [IU1-47] + CCNC(=O)c1noc(-c2cc(C(C)C)c(O)cc2O)c1-c1ccc(CN2CCOCC2)cc1 [Luminespib] (partner 0.01 µM)
The method in brief: (§1)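 Relative viability divides the nuclei count in treated wells by that in vehicle wells. Lung cancer cell lines were seeded in 1536-well plates, dosed by pin tool the next day, and fixed and stained after 5 days in one step with final 0.05% Triton X-100, 1% formaldehyde and 1 ug/ml Hoechst. Dosing was a single drug or a fixed anchor-drug dose plus five library-drug doses (not always all listed) in √10 steps, and values are medians of duplicate plates imaged at 4×.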

Compound in the assay “FG-4592 + Palbociclib”: Cc1nc(C(=O)NCC(=O)O)c(O)c2ccc(Oc3ccccc3)cc12 [FG-4592] + CC(=O)c1c(C)c2cnc(Nc3ccc(N4CCNCC4)cn3)nc2n(C2CCCC2)c1=O [Palbociclib] (partner 0.5 µM)
The method in brief:
as §1

Compound in the assay “FG-4592 + Phenformin”: Cc1nc(C(=O)NCC(=O)O)c(O)c2ccc(Oc3ccccc3)cc12 [FG-4592] + N=C(N)NC(=N)NCCc1ccccc1 [Phenformin] (partner 250 µM)
The method in brief: as §1

Compound in the assay “FG-4592 + Olaparib”: Cc1nc(C(=O)NCC(=O)O)c(O)c2ccc(Oc3ccccc3)cc12 [FG-4592] + O=C(c1cc(Cc2n[nH]c(=O)c3ccccc23)ccc1F)N1CCN(C(=O)C2CC2)CC1 [Olaparib] (partner 8 µM)
The method in brief:
as §1

For UMC-11, the relative viability with IU1-47 + Luminespib (first compound 0.08 µM) worked out at 1.08; with IU1-47 + Luminespib (first compound 0.253 µM), 0.974; with IU1-47 + Luminespib (first compound 0.8 µM) it was 1.09; with IU1-47 + Luminespib (first compound 2.53 µM), 1.06; with IU1-47 + Luminespib (first compound 8 µM), 0.938; in the assay with FG-4592 + Palbociclib (first compound 0.08 µM) it was 0.306. The relative viability in the assay with FG-4592 + Palbociclib (first compound 0.253 µM) worked out at 0.309; in the assay with FG-4592 + Palbociclib (first compound 0.8 µM) it was 0.32; with FG-4592 + Palbociclib (first compound 2.53 µM) it was 0.331; in the assay with FG-4592 + Palbociclib (first compound 8 µM) it was 0.285; with FG-4592 + Phenformin (first compound 0.08 µM), 0.323; in the assay with FG-4592 + Phenformin (first compound 0.253 µM) it was 0.291. Moreover, the relative viability with FG-4592 + Phenformin (first compound 0.8 µM) came to 0.322; in the assay with FG-4592 + Phenformin (first compound 2.53 µM), 0.314; in the assay with FG-4592 + Phenformin (first compound 8 µM), 0.395; with FG-4592 + Olaparib (first compound 0.08 µM), 0.286; in the assay with FG-4592 + Olaparib (first compound 0.253 µM), 0.332; with FG-4592 + Olaparib (first compound 0.8 µM), 0.357. The relative viability with FG-4592 + Olaparib (first compound 2.53 µM) came out at 0.341; with FG-4592 + Olaparib (first compound 8 µM), 0.348.
